This is an account of results in article PMC10458698, “Characterization of the interferences of systemic azole antifungal drugs with adrenal steroid biosynthesis using H295R cells and enzyme activity assays” (Current Research in Toxicology, 2023).

One data set addresses T1, CYP11A1 (Homo sapiens, UniProt P05108).
T1 construct: host or cells: V79-4 cells (Chinese hamster), transient transfection, mitochondrial fraction
T1 sequence (P05108 40-521): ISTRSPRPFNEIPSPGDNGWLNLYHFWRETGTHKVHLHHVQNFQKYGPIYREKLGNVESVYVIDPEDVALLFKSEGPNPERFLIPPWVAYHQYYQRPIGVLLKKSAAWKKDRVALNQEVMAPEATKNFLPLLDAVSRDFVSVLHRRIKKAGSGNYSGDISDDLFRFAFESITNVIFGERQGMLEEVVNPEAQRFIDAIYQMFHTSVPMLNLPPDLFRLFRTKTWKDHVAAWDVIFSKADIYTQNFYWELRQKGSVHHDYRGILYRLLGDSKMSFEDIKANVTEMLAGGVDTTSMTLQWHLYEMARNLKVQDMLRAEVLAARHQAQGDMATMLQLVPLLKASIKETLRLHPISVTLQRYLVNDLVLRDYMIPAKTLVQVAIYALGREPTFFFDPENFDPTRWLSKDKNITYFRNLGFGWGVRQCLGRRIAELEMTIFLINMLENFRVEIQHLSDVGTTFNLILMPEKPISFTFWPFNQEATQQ
The data set can be described thus: CYP11A1 assay based on mitochondrial fraction of V79-4 cells. Format: biochemical. To be noted: 10 µM, 20S-hydroxycholesterol 2 µM, 4 h, qualitative, assay of low sensitivity. Here is the method: Mitochondria were prepared as described previously with modifications ([Frezza et al., 2007]). Briefly, V79-4 cells (3,000,000) were seeded 4 h prior to transfection with 4 µg of expression plasmid for CYP11A1 and adrenodoxin (GeneScript Piscataway, USA, clone IDs OHu18602D and OHu55929D) using polyethylemine (PEI) in a PEI/DNA ratio of 3:1 (w/w). At 4 h post-transfection, medium was changed and cells were incubated overnight. Cells were collected in ice cold phosphate buffered saline (PBS) and centrifuged at 600 × g for 10 min at 4 °C. The pellet was resuspended in ice cold isolation buffer (10 mM Tris/MOPS, pH 7.4, 1 mM EGTA/Tris, pH 7.4, 200 mM sucrose in water) and transferred to a glass potter, followed by 35 S using a 2 cm^3 glass Teflon pestle. The homogenate was centrifuged for 10 min at 600 × g and 4 °C. The supernatant was collected and centrifuged for 10 min at 7000 × g at 4 °C. The pellet was washed and resuspended in 200 μL ice cold isolation buffer. After centrifugation, the pellet containing the mitochondrial fraction was resuspended in 30 μL reaction buffer (25 mM HEPES pH 7.4, 0.1 mM DTT, 0.1 mM EDTA, 4 mM MgCl2) and the protein content was determined by the BCA assay according to the manufacturer (Pierce BCA protein assay kit, Thermo Scientific, Rockford, USA). Bovine serum albumin provided with the kit was used as reference protein and absorbance was measured using a BioTek Cytation5 Imaging Reader (Agilent BioTek).
For the CYP11A1 activity assay, 500 µg/mL of freshly prepared mitochondrial fraction were pre-incubated on ice with reaction buffer, 1 mM NADPH and either vehicle (0.1% DMSO), 10 µM of the positive control ketoconazole ([Mast et al., 2013]) or the triazole antifungals for 10 min. The reaction was started by adding the substrate 20S-hydroxycholesterol at a final concentration of 2 µM in a reaction volume of 50 µL. After 4 h of incubation at 37 °C, the reaction was stopped by adding 50 µL methanol and shock-freezing in liquid nitrogen. Samples were stored at −80 °C until sample preparation for pregnenolone detection using an ELISA kit (Alpco, Salem, USA). Sample preparation included evaporation of samples to dryness, reconstitution in 6 µL methanol and 1:25 (v:v) dilution in water. The ELISA was performed according to the manufacturer and absorbance was measured using a BioTek Citation5 imaging reader.

In another data set the target is T2, CYP17A1 17α-hydroxylase (Homo sapiens, UniProt P05093).
T2 construct: expressed in transfected cells; host or cells: COS-1 cells, transient transfection, microsomal fraction
T2 sequence (P05093 1-508): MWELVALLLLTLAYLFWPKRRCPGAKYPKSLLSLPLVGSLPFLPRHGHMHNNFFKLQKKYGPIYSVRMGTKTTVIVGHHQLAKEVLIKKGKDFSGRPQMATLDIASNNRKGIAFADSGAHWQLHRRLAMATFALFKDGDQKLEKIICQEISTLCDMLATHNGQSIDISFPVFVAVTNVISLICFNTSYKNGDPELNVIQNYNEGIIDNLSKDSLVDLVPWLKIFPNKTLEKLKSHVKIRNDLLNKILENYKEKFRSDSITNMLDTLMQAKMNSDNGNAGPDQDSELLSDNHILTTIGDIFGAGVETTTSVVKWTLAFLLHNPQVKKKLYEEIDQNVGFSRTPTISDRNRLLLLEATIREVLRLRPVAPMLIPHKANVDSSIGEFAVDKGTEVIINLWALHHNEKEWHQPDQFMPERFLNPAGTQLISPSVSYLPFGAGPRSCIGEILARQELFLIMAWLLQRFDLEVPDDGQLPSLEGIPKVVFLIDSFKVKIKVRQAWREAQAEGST
Put plainly: CYP17A1 17α-hydroxylase activity assay, microsomes of transfected COS-1 cells. Format: biochemical. To be noted: cell-free. Here is the method: (§1) Microsomes were prepared from COS-1 cells transiently transfected with plasmids for either CYP17A1 and POR for CYP17A1-hydroxylase assay (human CYP17A1 was available in our own plasmid collection after cloning into pcDNA3, POR was ordered from Genescript, Piscataway, USA, clone ID OHu25584C), CYP17A1, POR and cytochrome b5 for CYP17A1 17,20-lyase assay (cytochrome b5 was from Genescript, clone ID OHu09495D), POR and CYP21A2 (Genescript, CYP21A2 clone ID OHu18602D), or 3β-HSD2 (Genescript, clone ID OHu14034D). Transfection was performed using PEI and equal amounts of required plasmids with a total DNA amount of 8 µg per transfection of 3,000,000 cells. After overnight incubation, cells were washed with prewarmed PBS before adding ice-cold PBS. Cells were collected and centrifuged at 600 × g for 4 min at 4 °C, washed with ice cold PBS and centrifuged again. The pellet was resuspended in a resuspension buffer (20 mM Tris, pH 7.5, 50 mM KCl, 2 mM MgCl2, 0.25 M sucrose). Cells were disrupted with 30 S by a glass potter (2 cm^3) as described above. The homogenate was centrifuged for 20 min at 12,000 × g and 4 °C. Microsomes were pelleted by ultracentrifugation at 100,000 × g for 1 h at 4 °C. The pellet was resuspended in reaction buffer and the protein concentration determined using the Pierce Protein BCA kit as described above.
(§2) Microsomal protein (250 µg/mL) was preincubated with 1 mM NADPH and the compound of interest in reaction buffer for 10 min. The reaction was started by adding progesterone spiked with a radioactive tracer (final activity 0.025 mCi) to a final concentration of 500 nM. After 10 min of incubation at 37 °C the reaction was stopped by adding enzyme substrate and product at a final concentration of 1 mM in methanol, followed by shock-freezing in liquid nitrogen. Steroids were separated by thin layer chromatography on SIL G-25 UV254 TLC plates (Macherey-Nagel, Düren, Germany) using chloroform and ethyl acetate (1:4; v:v). Bands were excised and radiolabeled steroids analyzed by scintillation counting using […] Plus cocktail (Zinsser Analytic, Frankfurt am Main, Germany) and a β-counter (Packard, Connecticut, USA). Relative conversion was calculated based on total counts.

For the next data set, the target named is T3, CYP17A1 17,20-lyase (Homo sapiens, UniProt P05093).
T3 construct: expressed in transfected cells; host or cells: COS-1 cells, transient transfection, microsomal fraction
T3 sequence (P05093 1-508): T2 sequence (P05093 1-508)
The data set can be described thus: CYP17A1 17,20-lyase activity assay, microsomes of transfected COS-1 cells. Format: biochemical. To be noted: for IC50: cell-free, 17α-hydroxypregnenolone 500 nM, 1 h. The method, then: as §1
Microsomes, 250 µg/mL, expressing CYP17A1, POR and cytochrome b5 were incubated in reaction buffer for 10 min with 1 mM NADPH and the azole antifungals. The reaction was started by adding 500 nM 17α-hydroxypregnenolone in a total reaction volume of 50 µL. After 1 h of incubation at 37 °C, the reaction was stopped adding 50 µL methanol. Samples were evaporated to dryness, reconstituted in 6 µL methanol, diluted 1:25 in water and the DHEA concentration was quantified using an ELISA kit (DEH3344, Demeditec, Kiel, Germany). Absorbance was measured using a BioTek Citation5 imaging reader.

The target in a further data set is T4, CYP21A2 (Homo sapiens, UniProt P08686).
T4 construct: host or cells: COS-1 cells, transient transfection, microsomal fraction
T4 sequence (P08686 1-495): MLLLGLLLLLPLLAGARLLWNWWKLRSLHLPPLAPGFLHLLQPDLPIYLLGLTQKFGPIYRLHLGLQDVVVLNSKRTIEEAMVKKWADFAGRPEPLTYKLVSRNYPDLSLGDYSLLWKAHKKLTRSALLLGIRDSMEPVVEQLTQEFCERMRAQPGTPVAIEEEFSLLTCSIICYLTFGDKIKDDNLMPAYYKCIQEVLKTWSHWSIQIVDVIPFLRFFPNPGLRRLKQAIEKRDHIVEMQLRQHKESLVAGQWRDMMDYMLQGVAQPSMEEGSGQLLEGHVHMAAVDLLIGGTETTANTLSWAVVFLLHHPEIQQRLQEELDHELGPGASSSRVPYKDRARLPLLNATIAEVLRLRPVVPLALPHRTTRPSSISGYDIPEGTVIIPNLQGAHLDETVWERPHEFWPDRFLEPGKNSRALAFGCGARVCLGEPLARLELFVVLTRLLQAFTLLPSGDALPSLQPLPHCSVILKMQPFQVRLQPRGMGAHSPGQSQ
The data set can be described thus: CYP21A2 activity assay, microsomes of transfected COS-1 cells. To be noted: cell-free, progesterone 500 nM, 10 min. Format: biochemical. Here is the method: as §1, §2

Another data set relates to H295R cells. Put plainly: Steroidogenesis assay in forskolin-stimulated H295R cells, UHPLC-MS/MS. Format: cell-based, human. To be noted: forskolin-stimulated, 48 h, in words. Here is the method: Briefly, 200,000 cells/mL between passages 5 and 10 were seeded in a 24-well plate. After 24 h, the medium was replaced by fresh medium containing reference or test compounds. […] As a time zero control, complete medium was incubated without cells. After 48 h of incubation, the cell culture supernatant was collected and stored at −20 °C until steroid quantification was performed by ultra-high liquid chromatography tandem mass spectrometry (UHPLC-MS/MS). All experiments were performed three times independently in technical duplicates.
Using water, the sample volume was adapted to 1 mL. Samples were extracted using Oasis HLB 3 cc SPE cartridge (30 mg, 30 μm particle size, Waters, Massachusetts, USA). Columns were preconditioned with 1 mL ethyl acetate and water prior to application of samples. After sample loading, columns were washed three times with 1 mL methanol (10% v/v) and water before samples were eluted applying 0.75 mL ethyl acetate twice. Eluates were evaporated to dryness and reconstituted in 50 µL methanol. Samples were applied to a reverse phase column (Waters Acquity UPLC BEH C18, 1.7 μm, 2.1 mm × 150 mm). […] Applied mobile phases consisted of water, acetonitrile and formic acid (95/5/0.1; v/v/v and 5/95/0.1; v/v/v). For data analysis, Hunter software version B.09.00 (Agilent Technologies) was used. Lower limit of detection (LOD), lower limit of quantification (LLOQ), and upper limit of quantification (ULOQ) are shown in Table 1.

The subject of the next data set is 11β-HSD2. Also noted: method as in Beck et al., 2017, Beck et al., 2020a. To be noted: in words, ref Beck et al., 2017, Beck et al., 2020a; cited from earlier work.
Details of data set [1]: method as in earlier work. To be noted: ref Zhang et al., 2018, Märtson et al., 2019, Vena et al., 2020, Risum et al., 2021, cited from earlier work.
The mark [2] stands for this setting: progesterone 500 nM, 10 min, read-out: IC50 CYP17A1 17α-hydroxylase mean.

Structures are written as SMILES. Where two headings read alike, the source gives them in different places. Bounds are passed on as bounds.

For `CC(=O)N1CCN(c2ccc(OCC3COC(Cn4ccnc4)(c4ccc(Cl)cc4Cl)O3)cc2)CC1` (centres unmarked) [ketoconazole], the “inhibition of CYP11A1 activity” value against CYP11A1 is reported as “weak inhibitory effect”.

Broadly, the IC50 is the midpoint of a concentration-inhibition curve. `CC(O)C(C)n1ncn(-c2ccc(N3CCN(c4ccc(OCC5COC(Cn6cncn6)(c6ccc(Cl)cc6Cl)O5)cc4)CC3)cc2)c1=O` (centres unmarked) [OH-itraconazole, Hydroxyitraconazole]: the “inhibition of CYP17A1 17α-hydroxylase” value against CYP17A1 17α-hydroxylase (in words) is recorded as “very weakly”. Also, the IC50 is 7.16 µM at CYP17A1 17α-hydroxylase (setting [2]), 2.48 µM at CYP17A1 17,20-lyase and more than 10 µM against CYP21A2. Also, the “lower inhibitory potency against 17,20-lyase than posaconazole” value at CYP17A1 17,20-lyase (relative to posaconazole) was determined as 10 times.

In the case of `CCCN(CCOc1c(Cl)cc(Cl)cc1Cl)C(=O)n1ccnc1` [prochloraz], the IC50 at CYP17A1 17α-hydroxylase (setting [2]) worked out at 0.09 µM; at CYP17A1 17α-hydroxylase (read-out: IC50 against 17α-hydroxylase), 0.0945 µM; on CYP17A1 17,20-lyase, 0.04 µM; at CYP21A2 it was 0.21 µM. Moreover, the “effect on the steroid profile” value with H295R cells is “significant accumulation of progesterone”.

Turning to `C[C@@H](c1ncncc1F)[C@](O)(Cn1cncn1)c1ccc(F)cc1F` [voriconazole], the IC50 at CYP17A1 17α-hydroxylase (setting [2]), against CYP17A1 17,20-lyase and on CYP21A2 was more than 10 µM in each case. Moreover, the “effect on the steroid profile” value in the data set with H295R cells is “only minor effects on the steroid profile”. Besides, the “inhibition of 11β-HSD2” value in the data set on 11β-HSD2 is “inactive”.

Regarding `OC(Cn1cncn1)(Cn1cncn1)c1ccc(F)cc1F` [fluconazole], the IC50 at CYP17A1 17α-hydroxylase (setting [2]), at CYP17A1 17,20-lyase and at CYP21A2 was more than 10 µM throughout. For the same molecule, in the data set on H295R cells, the “effect on the steroid profile” value is “only minor effects on the steroid profile”. In addition, the “inhibition of 11β-HSD2” value in the data set with 11β-HSD2 was “inactive”. In addition, the serum trough concentration in data set [1] (molar value in brackets) is listed as approximately 3 µM; in data set [1] it was 11 µg/mL.
